Measurements published in a melting point compilation (Tetko et al.; mined from patent text by program, amines drawn as free bases though some values may be those of a salt).

Compound | melting point
Cc1ccc(S(=O)(=O)c2ccc3[nH]c(C)c(CCNC(=O)OC(C)(C)C)c3c2)cc1 | 134 to 138 °C
CCOC(=O)c1[nH]cc2c1NC1=C(C(=O)CCC1)C2c1ccc(Sc2nc3cc(OC)ccc3[nH]2)o1 (stereo unspecified) | 140 °C
CON=Cc1ncn2c1CN(C)C(=O)c1c(Cl)cccc1-2 | 173 to 174 °C
CCOc1ccc(C(=O)c2ccc(OC)c(Cl)c2Cl)c(F)c1 | 94 to 96 °C
O=Cc1ccc2c(C=O)c[nH]c2c1 | 200 to 203 °C
COC(=O)c1c(-c2ccc(Cl)cc2)c2cc(OCc3ccccc3)ccc2c(=O)n1CC(C)C | 166 °C
CCCCC1C(=O)N(C(=O)NCCc2ccc(S(=O)(=O)NC(=O)NC3CCC(C)CC3)cc2)CCC1C (stereo unspecified) | 131 to 133 °C
CC(C)OC(=O)C(Cl)(Cl)P(=O)(OC(C)C)c1ccccc1 (stereo unspecified) | 42 to 44 °C
Cc1cccc(Cc2ccc(-c3cnn4c(O)ncnc34)cc2)c1 | 271 to 278 °C
Cc1ccc2c(c1)c(Cl)c(C#N)c(=O)n2C | 241 °C
CCOC(=O)c1sc(Oc2ccccc2)nc1C(F)(F)F | 52 to 54 °C
CC(C)(C)c1cc(CC(O)=S)cc(C(C)(C)C)c1O | 130 °C
COc1cc(COc2cc(C#N)n(-c3ccccc3)n2)ccc1OCc1nc(-c2ccccc2)oc1C | 120 to 121 °C
O=C(CCN1CCNCC1)Nc1ccc2c(c1)C(=O)c1cc(NC(=O)CCN3CCNCC3)ccc1C2=O | 218 °C
Nc1cccc2c1C(=O)C1=C(CCCC1)C2=O | 189 to 191 °C
Clc1ncc(OCc2ccccc2)c2ccccc12 | 97 to 98 °C
COc1ccc(NC(=S)C(N)=O)cc1OC | 149 to 151 °C
CCNC(=O)C(=O)NCC(OCC)OCC | 131 to 132 °C
CC(C)Cn1c(CNC(=O)OC(C)(C)C)c(-c2ccccc2)c2cc(O)ccc2c1=O | 218 to 219 °C
COc1cccc(C2C(=O)NC(=O)C2c2cn3c4c(cccc24)CCC3)c1 (stereo unspecified) | 87 to 91 °C
C/C(=N\OCCN1CCOCC1)[C@H]1CC[C@H]2[C@@H]3CC=C4C[C@@H](O)CC[C@]4(C)[C@H]3CC[C@]12C | 137 to 138 °C
COC(=O)C(O)=CC(=O)c1ncnc2c1ncn2Cc1ccccc1 | 166 to 167 °C
CCCCc1ccc(NC(=O)CCc2ccccc2)c(=O)n1CC(=O)O | 132 to 134 °C
CCOC(=O)Cn1nc(-c2ccc(C)cc2)c(C(N)=O)c1N | 179 °C
CC(=O)Nc1nc(CCc2ccc(NC(=N)N)cc2)c(Cc2cccc(S(C)(=O)=O)c2)s1 | 212 to 214 °C
CC(CC1(c2ccccc2)C=CCC=C1)N(C)C (stereo unspecified) | 87 to 90 °C

Compound | melting point
COCCC1(C(=O)N[C@@H](Cc2ccc(N3C(=O)c4cccc(C#N)c4C3=O)cc2)C(=O)OC)CCCC1 | 122 to 126 °C
O=C(/C=C/C=C(c1ccc(F)cc1)c1ccc(F)cc1)Oc1ccc([N+](=O)[O-])cc1 | 112 to 114 °C
NC(=O)c1cnc(N)c([N+](=O)[O-])c1 | 289 to 290 °C
Cc1onc(C(=O)c2ccccc2)c1NC(=O)CCl | 86 to 88 °C
O=C1C=C(O)C(=O)c2cc(F)ccc21 | 206 to 210 °C
Cn1ccnc1S(=O)(=O)c1ccc(Cl)cc1 | 164 to 166 °C
COc1nc2ccccc2nc1NC(=O)N1CCN(c2ccccc2)CC1 | 147 to 149 °C
COC(=O)c1ccc(F)cc1OC(=S)N(C)C | 107 °C
CCNC(=O)[C@@H]1C[C@H](SCc2ccc(OC)cc2)CN1 | 67 to 68 °C
CSc1cc(C#N)c(Oc2ccc(Cl)c(Cl)c2)cn1 | 96 to 97 °C
CCCCc1ccc(N2CCN(C(=O)Nc3nc4ccccc4nc3OC)CC2)cc1 | 124 to 126 °C
CC(C)(C)OC(=O)NCC(O)c1cccs1 (stereo unspecified) | 101 to 102 °C
CCn1c(=O)c2c(nc(/C=C/c3ccc(OC)c(O)c3)n2C)n(CC)c1=O | 204 to 206 °C
Cc1ccc([N+](=O)[O-])c(C)c1CO | 94.5 to 96.1 °C
Cc1c(SCCCSCC2CN(C)C(=O)O2)ccnc1CNc1cnc2ccccc2c1 (stereo unspecified) | 98 to 100 °C
CC(=O)ON=C(N)c1ccc(C(=O)N2CCN(C(=O)[C@@H]3CCCN3S(=O)(=O)c3ccc(Cl)c(COc4cccc5ncc(C)nc45)c3Cl)CC2)cc1 | 161 to 165 °C
CCCCCCCCCCCCCCCCCCc1c(C)[nH]c(C(=O)OCC)c1C | 76 to 78 °C
CCCCc1nc(S(=O)CC)c(C(=O)O)n1Cc1ccc(-c2ccccc2C(=O)O)cc1 (stereo unspecified) | 186 °C
CCn1c(C(F)(F)F)n[nH]c1=O | 54 °C
COc1cc(N=c2scc(-c3ccc(Cl)c(S(=O)(=O)N(C)C)c3)n2C)cc(OC)c1OC | 119 to 122 °C
CC(N)c1ccc2c(c1)N(C(=O)OC(C)(C)C)CCC2 (stereo unspecified) | 61 to 64 °C
Nc1ncnc2c1ncn2Cc1oc2ccc(F)cc2c(=O)c1-c1ccccc1 | 207 to 209 °C
CCCCNC(=O)N1C2=NC(C)(C)N(C)C(=O)N2c2ccccc21 | 95 to 97 °C
CC(C)OC(=O)c1cc(-n2c(=O)c3c(n(C)c2=O)CCC3)c(F)cc1F | 112 to 115 °C
CC(CC1=C(c2ccc(O)cc2)CCCNC1=O)N1CCCCC1 (stereo unspecified) | 178 to 181 °C
